What is called inhibition is the relative decrease from the control value, in per cent.

The target of this assay is T1, human oxytocin receptor (Homo sapiens, UniProt P30559).
T1 construct: host or cells: CHO cells (pcDNA3.1 vector)
T1 sequence (P30559 1-389): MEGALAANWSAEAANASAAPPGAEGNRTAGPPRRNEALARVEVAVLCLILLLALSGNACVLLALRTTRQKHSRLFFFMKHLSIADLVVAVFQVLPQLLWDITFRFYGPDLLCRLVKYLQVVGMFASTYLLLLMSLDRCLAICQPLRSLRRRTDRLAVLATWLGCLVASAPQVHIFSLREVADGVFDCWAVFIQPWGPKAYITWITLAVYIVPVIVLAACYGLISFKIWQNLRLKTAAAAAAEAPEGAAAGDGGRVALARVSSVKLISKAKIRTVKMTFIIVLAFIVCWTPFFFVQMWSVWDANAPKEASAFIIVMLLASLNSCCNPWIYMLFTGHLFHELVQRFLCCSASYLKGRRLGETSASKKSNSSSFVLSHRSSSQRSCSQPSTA
As to the kind of experiment: Oxytocin binding in Chinese Hamster Ovary cell membranes expressing human oxytocin receptors. To be noted: 100 nM, CHO cell membranes, [3H]oxytocin, values without parentheses, read-out: OT % inhibition @ 100% nM.

SMILES strings stand for the structures.

Take `COc1cc(C(=O)N2Cc3ccc(C(=O)N4CCN(CCCN(C)C)CC4)n3Cc3ccccc32)ccc1-c1ccccc1C` [Example 250, {4-[3-(Dimethylamino)propyl]-1-piperazinyl}{10-[(2-methoxy-2′-methyl[1,1′-biphenyl]-4-yl)carbonyl]-10,11-dihydro-5H-pyrrolo[2,1-c][1,4]benzodiazepin-3-yl}methanone]: the inhibition at 0.1 µM amounted to 87%.

On to `COc1cc(-c2ccccc2C)c(Cl)cc1C(=O)N1Cc2ccc(C(=O)N3CCN(CCCN(C)C)CC3)n2Cc2ccccc21` [Example 251, {10-[(6-Chloro-3-methoxy-2′-methyl[1,1′-biphenyl]-4-yl)carbonyl]-10,11-dihydro-5H-pyrrolo[2,1-c][1,4]benzodiazepin-3-yl}{4-[3-(dimethylamino)propyl]-1-piperazinyl}methanone], for which the inhibition at 0.1 µM was 87%. In the case of `COc1cccc(-c2cc(OC)c(C(=O)N3Cc4ccc(C(=O)N5CCN(CCCN(C)C)CC5)n4Cc4ccccc43)cc2Cl)c1` [Example 252, {10-[(6-Chloro-3,3′-dimethoxy[1,1′-biphenyl]-4-yl)carbonyl]-10,11-dihydro-5H-pyrrolo[2,1-c][1,4]benzodiazepin-3-yl}{4-[3-(dimethylamino)propyl]-1-piperazinyl}methanone] it was 72%. As for `COc1cc(C(=O)N2Cc3ccc(C(=O)N4CCN(CCCN(C)C)CC4)n3Cc3ccccc32)ccc1-c1cccc2ccccc12` [Example 253, {4-[3-(Dimethylamino)propyl]-1-piperazinyl}{10-[3-methoxy-4-(1-naphthyl)benzoyl]-10,11-dihydro-5H-pyrrolo[2,1-c][1,4]benzodiazepin-3-yl}methanone], the figure is 71%; as for `COc1ccccc1-c1ccc(C(=O)N2Cc3ccc(C(=O)N4CCN(CCCN(C)C)CC4)n3Cc3ccccc32)cc1OC` [Example 254, {10-[(2,2′-Dimethoxy[1,1′-biphenyl]-4-yl)carbonyl]-10,11-dihydro-5H-pyrrolo[2,1-c][1,4]benzodiazepin-3-yl}{4-[3-(dimethylamino)propyl]-1-piperazinyl}methanone], 66%. With `COc1cccc(-c2ccc(C(=O)N3Cc4ccc(C(=O)N5CCN(CCCN(C)C)CC5)n4Cc4ccccc43)cc2OC)c1` [Example 255, {10-[(2,3′-Dimethoxy[1,1′-biphenyl]-4-yl)carbonyl]-10,11-dihydro-5H-pyrrolo[2,1-c][1,4]benzodiazepin-3-yl}{4-[3-(dimethylamino)propyl]-1-piperazinyl}methanone], the inhibition at 0.1 µM was 80%. In the case of `CN(C)CCCN1CCN(C(=O)c2ccc3n2Cc2ccccc2N(C(=O)c2ccc(-c4cccc5ccccc45)cc2Cl)C3)CC1` [Example 256, {10-[2-Chloro-4-(1-naphthyl)benzoyl]-10,11-dihydro-5H-pyrrolo[2,1-c][1,4]benzodiazepin-3-yl}{4-[3-(dimethylamino)propyl]-1-piperazinyl}methanone] it was 33%; in that of `Cc1cc(C(=O)N2Cc3ccc(C(=O)N4CCN(CCCN(C)C)CC4)n3Cc3ccccc32)ccc1-c1ccccc1C(F)(F)F` [Example 257, {10-[(2-Methyl-2′-trifluoromethyl-[1,1′-biphenyl]-4-yl)carbonyl]-10,11-dihydro-5H-pyrrolo[2,1-c][1,4]benzodiazepin-3-yl}{4-[3-(dimethylamino)propyl]-1-piperazinyl}-methanone], 85%; in that of `Cc1cc(C(=O)N2Cc3ccc(C(=O)N[C@@H](Cc4c[nH]cn4)C(N)=O)n3Cc3ccccc32)ccc1-c1ccccc1C(F)(F)F` [Example 284, N-[(1S)-2-Amino-1-(1H-imidazol-4-ylmethyl)-2-oxoethyl]-10-{[2-methyl-2′-(trifluoromethyl)[1,1′-biphenyl]-4-yl]carbonyl}-10,11-dihydro-5H-pyrrolo[2,1-c][1,4]benzodiazepine-3-carboxamide], 87%.

For `COc1ccccc1-c1ccc(C(=O)N2Cc3ccc(C(=O)N[C@@H](Cc4c[nH]cn4)C(N)=O)n3Cc3ccccc32)cc1` [Example 285, N-[(1S)-2-Amino-1-(1H-imidazol-4-ylmethyl)-2-oxoethyl]-10-[(2′-methoxy[1,1′-biphenyl]-4-yl)carbonyl]-10,11-dihydro-5H-pyrrolo[2,1-c][1,4]benzodiazepine-3-carboxamide], the inhibition at 0.1 µM worked out at 93%. On to `COc1ccccc1-c1ccc(C(=O)N2Cc3ccc(C(=O)N[C@@H](Cc4c[nH]cn4)C(N)=O)n3Cc3ccccc32)cc1OC` [Example 286, N-[(1S)-2-Amino-1-(1H-imidazol-4-ylmethyl)-2-oxoethyl]-10-[(2,2′-dimethoxy[1,1′-biphenyl]-4-yl)carbonyl]-10,11-dihydro-5H-pyrrolo[2,1-c][1,4]benzodiazepine-3-carboxamide], for which the inhibition at 0.1 µM stood at 86%. As for `COc1cccc(-c2cc(OC)c(C(=O)N3Cc4ccc(C(=O)N[C@@H](Cc5c[nH]cn5)C(N)=O)n4Cc4ccccc43)cc2Cl)c1` [Example 287, N-[(1S)-2-Amino-1-(1H-imidazol-4-ylmethyl)-2-oxoethyl]-10-[(6-chloro-3,3′-dimethoxy[1,1′-biphenyl]-4-yl)carbonyl]-10,11-dihydro-5H-pyrrolo[2,1-c][1,4]benzodiazepine-3-carboxamide], the figure is 88%; as for `COc1ccccc1-c1ccc(C(=O)N2Cc3ccc(C(=O)N[C@@H](Cc4c[nH]cn4)C(N)=O)n3Cc3ccccc32)cc1C` [Example 288, N-[(1S)-2-Amino-1-(1H-imidazol-4-ylmethyl)-2-oxoethyl]-10-[(2′-methoxy-2-methyl[1,1′-biphenyl]4-yl)carbonyl]-10,11-dihydro-5H-pyrrolo[2,1-c][1,4]benzodiazepine-3-carboxamide], 95%; as for `COc1cccc(-c2ccc(C(=O)N3Cc4ccc(C(=O)n5ccnc5)n4Cc4ccccc43)cc2C)c1` [Example 289, 1H-Imidazol-1-yl-{10-[(3′-methoxy-2-methyl[1,1′-biphenyl]-4-yl)carbonyl]-10,11-dihydro-5H-pyrrolo[2,1-c][1,4]benzodiazepin-3-yl}methanone], 45%. In the case of `COc1cc(C(=O)N2Cc3ccc(C(=O)n4ccnc4)n3Cc3ccccc32)ccc1-c1ccccc1C` [Example 290, 1H-Imidazol-1-yl-{10-[(2-methoxy-2′-methyl[1,1′-biphenyl]-4-yl)carbonyl]-10,11-dihydro-5H-pyrrolo[2,1-c][1,4]benzodiazepin-3-yl}methanone] it was 78%. With `COc1cc(C(=O)N2Cc3ccc(C(=O)n4ccnc4)n3Cc3ccccc32)ccc1-c1cccc2ccccc12` [Example 291, 1H-Imidazol-1-yl-{10-[3-methoxy-4-(1-naphthyl)benzoyl]-10,11-dihydro-5H-pyrrolo[2,1-c][1,4]benzodiazepin-3-yl}methanone], the inhibition at 0.1 µM turned out to be 32%.

Take `COc1ccccc1-c1ccc(C(=O)N2Cc3ccc(C(=O)n4ccnc4)n3Cc3ccccc32)cc1C` [Example 292, 1H-Imidazol-1-yl-{10-[(2′-methoxy-2-methyl[1,1′-biphenyl]-4-yl)carbonyl]-10,11-dihydro-5H-pyrrolo[2,1-c][1,4]benzodiazepin-3-yl}methanone]: the inhibition at 0.1 µM came to 69%. In the case of `COc1ccccc1-c1ccc(C(=O)N2Cc3ccc(C(=O)n4ccnc4)n3Cc3ccccc32)cc1OC` [Example 293, {10-[(2,2′-Dimethoxy[1,1′-biphenyl]-4-yl)carbonyl]-10,11-dihydro-5H-pyrrolo[2,1-c][1,4]benzodiazepin-3-yl}(1H-imidazol-1-yl)methanone] it was 53%. In the case of `Cc1cc(C(=O)N2Cc3ccc(C(=O)n4ccnc4)n3Cc3ccccc32)ccc1-c1ccccc1C(F)(F)F` [Example 294, 1H-Imidazol-1-yl(10-{[2-methyl-2′-(trifluoromethyl)[1,1′-biphenyl]-4-yl]carbonyl}-10,11-dihydro-5H-pyrrolo[2,1-c][1,4]benzodiazepin-3-yl)methanone] it was 54%; in that of `COc1ccccc1-c1ccc(C(=O)N2Cc3ccc(C(=O)N[C@@H]4CN5CCC4CC5)n3Cc3ccccc32)cc1C` [Example 295, N-[(3S)-1-Azabicyclo[2.2.2]oct-3-yl]-10-[(2′-methoxy-2-methyl[1,1′-biphenyl]-4-yl)carbonyl]-10,11-dihydro-5H-pyrrolo[2,1-c][1,4]benzodiazepine-3-carboxamide], 79%. In the case of `COc1ccccc1-c1ccc(C(=O)N2Cc3ccc(C(=O)N[C@H]4CN5CCC4CC5)n3Cc3ccccc32)cc1` [Example 296, N-[(3R)-1-Azabicyclo[2.2.2]oct-3-yl]-10-[(2′-methoxy[1,1′-biphenyl]-4-yl)carbonyl]-10,11-dihydro-5H-pyrrolo[2,1-c][1,4]benzodiazepine-3-carboxamide] it was 88%; in that of `COc1cc(-c2ccccc2C)c(Cl)cc1C(=O)N1Cc2ccc(C(=O)N[C@@H]3CN4CCC3CC4)n2Cc2ccccc21` [Example 297, N-[(3S)-1-Azabicyclo[2.2.2]oct-3-yl]-10-[(6-chloro-3-methoxy-2′-methyl-[1,1′-biphenyl]-4-yl)carbonyl]-10,11-dihydro-5H-pyrrolo[2,1-c][1,4]benzodiazepine-3-carboxamide], 73%; in that of `COc1ccccc1-c1ccc(C(=O)N2Cc3ccc(C(=O)N[C@H]4CN5CCC4CC5)n3Cc3ccccc32)cc1C` [Example 298, N-[(3R)-1-Azabicyclo[2.2.2]oct-3-yl]-10-[(2′-methoxy-2-methyl[1,1′-biphenyl]-4-yl)carbonyl]-10,11-dihydro-5H-pyrrolo[2,1-c][1,4]benzodiazepine-3-carboxamide], 94%.

The values above are taken from patent publication US7109193B2, “Tricyclic diazepines tocolytic oxytocin receptor antagonists” (Wyeth, priority 2001, dated 2006).
